Reference: patent US12383628B2 (priority 2016, dated 2025)
Square brackets hold non-standard residues; d marks the D form. Peptide text beside a SMILES is read from it. Dmt = Cc1cc(O)cc(C)c1C[C@H](N)C(=O)O

Experiments:
Male CD1 mice = assay: Radiant heat tail-flick test of biogel compositions s.c. (in solution or as a gel); format: in vivo, mouse; details: injection volume of 150 μl
Method: Male CD1 mice (6-8 weeks old, body weight average 30 g) were obtained from Charles River (Sulzfeld, Germany). Mice were group-housed in a temperature controlled room with a 12 h light/dark cycle and with free access to food and water. All animal studies were conducted in accordance with ethical guidelines and animal welfare standards according to Austrian regulations for animal research, and were approved by the Committee of Animal Care of the Austrian Federal Ministry of Science and Research. […]
The radiant heat tail-flick test was used to assess antinociceptive effects of tested drugs after s.c. administration in mice using an UB 37360 Ugo Basile analgesiometer (Ugo Basile s.r.l., Varese, Italy) as described previously (A. Novoa et al., 2012). The reaction time required by the mouse to remove its tail due to the radiant heat was measured and defined as the tail-flick latency. […] The antinociceptive response was expressed as percent of Maximum Possible Effect (% MPE)=[(TL-BL)/(cut-off time-BL)]×100. Data were analyzed with ANOVA using Tukey's multiple comparison test, and graphically processed with the GraphPad Prism Software (GraphPad Software Inc., San Diego, CA). […]

[1] = Stability and degradability of biogels in human plasma (Example 8); format: in vitro ADME; details: human plasma, 37° C.
Method: After centrifugation at 14 000 rpm for 15 minutes, 100 μL supernatant was diluted with 100 μL milliQ water in the injection vial. Injection samples were vortexed for 5 seconds and were analyzed by HPLC. […] Calculations were performed using Microsoft® Office Professional 2010 Excel.

[2] = Peptide gelation (tilted tube / inverted vial test, minimum gelation concentration); format: physicochemical; details: in PBS; '/' = no gel
Outline: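 TFA salt of peptide dissolved (1 or 2 mg per 100 μL) in PBS pH 7.4 or 0.9% NaCl saline, vortexed and sonicated, then left overnight at room temperature. Gelation judged by inverted vial test: no gravitational flow means gel. Rheology by dynamic rheometry at 37° C (G′, G″, tan δ).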

[3] = TEM / cryo-TEM fibre morphology of hydrogels; format: physicochemical; details: cryoTEM and negative staining, Example 9
Method: Formvar carbon-coated 400-mesh copper grids (Agar Scientific, Stansted, United Kingdom) were treated with plasma using an ELMO Glow discharge system to clean the grid surface and to render the carbon surface hydrophilic. Hydrogel samples were prepared 12 h in advance as described above. Small aliquots of sample (5 μL) were pipetted onto the carbon grids for adsorption. After 30 s, excess of sample was removed by using a Whatman 541 filter paper. The loaded grids were stained during 10 s with 1% uranyl formate after which the grids were air-dried. Samples were analysed using a JEOL JEM-1400 transmission electron microscope, operating at accelerating voltage of 120 kV. Images were recorded on a CMOS TemCam-F416 camera and accessory software of TVIPS.
200-mesh copper grids coated with perforated carbon film (Lacey carbon film: ProSci-Tech Old, Australia) were used and were glow discharged in nitrogen for 5 s immediately prior to use. Hydrogel samples were prepared 12 h in advance as described above. Small aliquots of sample (4 μL) were pipetted onto the carbon grids for adsorption. After 30 s, excess of sample was removed by using a Whatman 541 filter paper. The grid was then plunged into liquid ethane cooled by liquid nitrogen. Frozen grids were stored in liquid nitrogen until required. Samples were analysed using a Gatan 626 cryoholder and Tecnai 12 Transmission electron microscope, operating at accelerating voltage of 120 kV. Images were recorded using an FEI Eagle 4k×4k CCD camera.

[4] = 37° C., 9 μM
Method: Human plasma was obtained from the Belgian Red Cross (Vlaams-Brabant, Leuven). Prior to the stability test, selectivity, stability of the compound in the injection solvent, linearity, accuracy and precision of the method were investigated. Frozen (−20° C.) human plasma samples were thawed and thermostated to 37±2° C. Dissolution of the lyophilized peptide and consecutive dilutions were performed in water. The resulting aqueous solutions of each peptide individually was spiked in human plasma (10:90 v/v) with final plasma concentrations of 9 μM.
On every time point 100 μL spiked plasma was transferred to a 500 μL Eppendorf tube and a protein crash was performed using the corresponding precipitation solvent (4° C.). Suspensions were vortexed for 15 s and placed at 4° C. for 30 to 45 min. After centrifugation at 18 625 g for 20 min, 100 μL supernatant was diluted with 100 μL water in the injection vial.
Injection samples were vortexed for 5 sand placed in the autosampler. […] Concentrations were calculated by use of the calibration curve and transferred to a semi-log chart presenting the log concentrations as a function of time. The optimum curve was used to calculate the peptide half-life. Calculations were performed using Microsoft® Office Professional 2010 Excel.

Cc1cc(O)cc(C)c1C[C@H](N)C(=O)N[C@H](CCCNC(=N)N)C(=O)N[C@@H](Cc1ccccc1)C(=O)N[C@@H](Cc1ccccc1)C(=O)N[C@@H](CCC(N)=O)C(=O)N[C@@H](Cc1ccccc1)C(=O)N[C@@H](CCC(N)=O)C(=O)N[C@@H](Cc1ccccc1)C(=O)N[C@@H](CCCCN)C(N)=O [CM-57, Dmt-DArg-Phe-Phe-Gln-Phe*-Gln-Phe-Lys-NH2] (H-[Dmt][dR]FFQFQFK-NH2; N-terminus assumed)
Release profile as biogel in tail-flick test (Male CD1 mice): showed the desired sustained release curve
Time at which degradation of the heptapeptide into the N-terminal pentapeptide started [1]: 7.5 min
Time at which degradation of the pentapeptide into tripeptide was observed [1]: 60 min
Time of appearance of the heptapeptide (loss of Phe-Lys-NH2) [1]: 2.5 min
half-life at 14 μM ([1]; human, in solution, 14 μM): ~17 min

NCCCC[C@@H](N)C(=O)N[C@H](Cc1ccccc1)C(=O)N[C@H](CCC(N)=O)C(=O)N[C@H](Cc1ccccc1)C(=O)N[C@H](CCC(=O)O)C(=O)N[C@H](Cc1ccccc1)C(N)=O [peptide 24, H-DLys-DPhe-DGln-DPhe*-DGlu-DPhe-NH2] (H-[dK][dF][dQ][dF][dE][dF]-NH2)
Minimum gelation concentration (w/v % in PBS) [2]: 2 w/v %
Fibre diameter [3]: ~5 nm
Stability in human plasma [4]: remains intact after 25 h of incubation
